The source of these data is patent publication US20240132521A1, “COMPOUNDS AND METHODS FOR MODULATING HER2” (Iambic Therapeutics, Inc., priority 2022, published 2024).

Assay type in all cases: cell-based
The target in experiment [1] is BaF3_EGFRWT cells (Homo sapiens, UniProt P00533). Nature of the experiment: Cell growth inhibition assay (CellTiterGlo), BaF3_EGFRWT. To be noted: 3-day treatment, CellTiterGlo, read-out: Cell growth inhibition activity, EGFR WT. (In ATP-based viability assays light output follows the ATP content of the culture.)
Experiment [2] deals with BaF3_HER2YVMA cells (Homo sapiens, UniProt P04626, DUP772-775, cells depend on it). Nature of the experiment: Cell growth inhibition assay (CellTiterGlo), BaF3_HER2YVMA. To be noted: 3-day treatment, CellTiterGlo, read-out: Cell growth inhibition activity, HER2 - YVMA.
Experiment [3] has as its target BaF3_HER2WT cells (Homo sapiens, UniProt P04626). Nature of the experiment: Cell growth inhibition assay (CellTiterGlo), BaF3_HER2WT. To be noted: 3-day treatment, CellTiterGlo, read-out: Cell growth inhibition activity, HER2 WT.

BaF3_HER2WT cells, sequence (P04626 whole entry, change not shown): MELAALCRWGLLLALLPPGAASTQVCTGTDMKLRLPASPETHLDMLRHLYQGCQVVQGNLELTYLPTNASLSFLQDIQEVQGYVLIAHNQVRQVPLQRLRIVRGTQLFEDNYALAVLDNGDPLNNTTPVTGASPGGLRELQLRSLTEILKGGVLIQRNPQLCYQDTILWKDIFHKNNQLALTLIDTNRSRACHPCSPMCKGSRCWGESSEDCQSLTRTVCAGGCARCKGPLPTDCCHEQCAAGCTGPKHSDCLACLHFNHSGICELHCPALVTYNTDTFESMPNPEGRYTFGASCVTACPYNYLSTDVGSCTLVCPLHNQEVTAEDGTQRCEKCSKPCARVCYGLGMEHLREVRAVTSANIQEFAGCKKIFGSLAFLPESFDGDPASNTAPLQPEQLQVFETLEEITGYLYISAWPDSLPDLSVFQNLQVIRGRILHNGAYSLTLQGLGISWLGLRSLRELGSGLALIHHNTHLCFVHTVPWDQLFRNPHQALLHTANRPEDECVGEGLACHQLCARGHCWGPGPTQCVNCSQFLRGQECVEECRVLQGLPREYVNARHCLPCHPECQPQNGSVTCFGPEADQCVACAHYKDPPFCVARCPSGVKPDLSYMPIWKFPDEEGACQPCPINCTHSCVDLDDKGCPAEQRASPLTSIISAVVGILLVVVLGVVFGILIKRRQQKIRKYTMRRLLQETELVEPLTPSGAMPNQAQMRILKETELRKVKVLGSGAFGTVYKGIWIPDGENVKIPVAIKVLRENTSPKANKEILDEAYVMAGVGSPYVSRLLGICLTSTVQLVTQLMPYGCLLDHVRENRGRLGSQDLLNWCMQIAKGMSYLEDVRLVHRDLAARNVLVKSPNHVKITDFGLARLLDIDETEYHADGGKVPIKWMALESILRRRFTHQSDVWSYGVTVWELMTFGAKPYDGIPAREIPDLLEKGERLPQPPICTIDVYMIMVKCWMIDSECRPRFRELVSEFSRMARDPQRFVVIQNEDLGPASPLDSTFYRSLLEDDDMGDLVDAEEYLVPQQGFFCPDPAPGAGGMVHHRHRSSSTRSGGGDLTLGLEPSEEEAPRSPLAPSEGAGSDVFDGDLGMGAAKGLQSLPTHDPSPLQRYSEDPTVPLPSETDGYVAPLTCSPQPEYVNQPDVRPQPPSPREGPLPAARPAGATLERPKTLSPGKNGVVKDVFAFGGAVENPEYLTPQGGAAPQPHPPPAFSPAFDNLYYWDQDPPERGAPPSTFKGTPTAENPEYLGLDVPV
BaF3_HER2YVMA cells, sequence (P04626 with tags, fused parts or gaps DUP772-775): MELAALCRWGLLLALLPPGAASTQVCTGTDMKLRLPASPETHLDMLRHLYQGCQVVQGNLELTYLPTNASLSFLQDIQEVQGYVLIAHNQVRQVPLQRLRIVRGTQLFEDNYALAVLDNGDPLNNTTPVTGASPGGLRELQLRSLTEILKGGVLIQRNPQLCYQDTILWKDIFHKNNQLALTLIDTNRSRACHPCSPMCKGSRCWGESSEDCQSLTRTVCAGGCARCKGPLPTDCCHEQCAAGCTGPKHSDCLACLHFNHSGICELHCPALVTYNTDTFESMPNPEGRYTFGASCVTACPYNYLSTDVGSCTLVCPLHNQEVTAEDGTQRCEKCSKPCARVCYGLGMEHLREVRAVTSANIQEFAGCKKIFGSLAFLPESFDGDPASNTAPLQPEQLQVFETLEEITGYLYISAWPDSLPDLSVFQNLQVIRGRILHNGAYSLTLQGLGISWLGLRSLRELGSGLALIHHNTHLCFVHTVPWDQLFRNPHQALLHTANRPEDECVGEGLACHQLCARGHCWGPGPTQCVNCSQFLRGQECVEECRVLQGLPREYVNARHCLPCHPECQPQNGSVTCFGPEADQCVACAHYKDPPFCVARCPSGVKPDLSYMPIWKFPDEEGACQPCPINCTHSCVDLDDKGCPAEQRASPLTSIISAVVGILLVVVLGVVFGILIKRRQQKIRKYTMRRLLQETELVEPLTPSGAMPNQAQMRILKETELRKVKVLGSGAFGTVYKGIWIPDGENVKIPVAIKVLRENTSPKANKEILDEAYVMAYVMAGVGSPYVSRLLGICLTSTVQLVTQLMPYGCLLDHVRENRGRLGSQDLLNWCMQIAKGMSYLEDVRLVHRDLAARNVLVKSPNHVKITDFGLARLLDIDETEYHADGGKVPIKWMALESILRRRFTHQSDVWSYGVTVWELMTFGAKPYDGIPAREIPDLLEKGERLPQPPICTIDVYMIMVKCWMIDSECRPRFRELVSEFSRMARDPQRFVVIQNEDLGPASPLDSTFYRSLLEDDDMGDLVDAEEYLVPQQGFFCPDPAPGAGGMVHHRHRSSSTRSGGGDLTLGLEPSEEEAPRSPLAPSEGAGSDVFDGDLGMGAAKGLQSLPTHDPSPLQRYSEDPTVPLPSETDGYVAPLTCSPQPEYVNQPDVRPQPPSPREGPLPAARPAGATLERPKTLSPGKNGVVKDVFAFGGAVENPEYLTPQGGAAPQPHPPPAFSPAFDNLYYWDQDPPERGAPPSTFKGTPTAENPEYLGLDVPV
BaF3_EGFRWT cells, sequence (P00533 whole entry, change not shown): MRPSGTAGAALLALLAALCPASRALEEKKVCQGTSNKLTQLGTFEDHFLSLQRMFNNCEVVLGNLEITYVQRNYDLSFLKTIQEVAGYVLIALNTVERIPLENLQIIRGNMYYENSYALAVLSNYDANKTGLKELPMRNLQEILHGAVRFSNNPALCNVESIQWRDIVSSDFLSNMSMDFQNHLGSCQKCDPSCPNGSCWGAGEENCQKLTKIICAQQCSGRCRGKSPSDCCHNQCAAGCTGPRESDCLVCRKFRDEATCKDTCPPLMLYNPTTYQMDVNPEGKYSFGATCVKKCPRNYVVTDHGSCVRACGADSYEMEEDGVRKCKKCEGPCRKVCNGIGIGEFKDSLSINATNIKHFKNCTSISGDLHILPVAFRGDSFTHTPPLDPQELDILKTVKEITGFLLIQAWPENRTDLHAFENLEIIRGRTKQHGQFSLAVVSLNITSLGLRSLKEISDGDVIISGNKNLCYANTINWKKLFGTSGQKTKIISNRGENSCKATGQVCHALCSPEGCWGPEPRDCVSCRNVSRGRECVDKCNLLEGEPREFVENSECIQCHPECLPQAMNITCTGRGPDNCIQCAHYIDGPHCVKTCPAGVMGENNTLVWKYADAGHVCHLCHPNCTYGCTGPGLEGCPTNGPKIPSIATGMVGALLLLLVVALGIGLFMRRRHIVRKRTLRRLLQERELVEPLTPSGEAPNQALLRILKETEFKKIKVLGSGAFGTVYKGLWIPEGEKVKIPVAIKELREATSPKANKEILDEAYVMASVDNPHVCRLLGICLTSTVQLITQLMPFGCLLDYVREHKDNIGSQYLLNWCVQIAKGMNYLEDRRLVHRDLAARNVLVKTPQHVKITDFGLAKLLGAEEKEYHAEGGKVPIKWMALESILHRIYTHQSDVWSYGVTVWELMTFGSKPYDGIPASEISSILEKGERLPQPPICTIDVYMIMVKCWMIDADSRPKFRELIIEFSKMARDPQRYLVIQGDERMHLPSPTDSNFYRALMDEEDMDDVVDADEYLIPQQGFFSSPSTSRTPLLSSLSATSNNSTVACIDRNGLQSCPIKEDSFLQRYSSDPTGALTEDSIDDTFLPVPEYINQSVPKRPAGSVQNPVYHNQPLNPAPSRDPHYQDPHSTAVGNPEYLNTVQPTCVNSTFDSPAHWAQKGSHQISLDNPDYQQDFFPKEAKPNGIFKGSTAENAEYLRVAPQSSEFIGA

As to `Cc1cc(Nc2ncnn3ccc(N4CCC(N(C)C(=O)/C=C/CN(C)C)C4)c23)ccc1Oc1ccn2ncnc2c1` (stereo not drawn) [Example 70, (E)-N-(1-(4-((4-([1,2,4]triazolo[1,5-a]pyridin-7-yloxy)-3-methylphenyl)amino)pyrrolo[2,1-f][1,2,4]triazin-5-yl)pyrrolidin-3-yl)-4-(dimethylamino)-N-methylbut-2-enamide], the GI50 in experiment [1] is 1500 to 5000 nM; in experiment [2], less than 200 nM; in experiment [3], less than 200 nM.

Regarding `Cc1cc(Nc2ncnn3ccc(N4CC(NC(=O)/C=C/CN(C)C)C4)c23)ccc1Oc1ccn2ncnc2c1` [Example 71, (E)-N-(1-(4-((4-([1,2,4]triazolo[1,5-a]pyridin-7-yloxy)-3-methylphenyl)amino)pyrrolo[2,1-f][1,2,4]triazin-5-yl)azetidin-3-yl)-4-(dimethylamino)but-2-enamide], the GI50 is 1500 to 5000 nM in experiment [1], 200 to 500 nM in experiment [2] and less than 200 nM in experiment [3].

Consider `C=CC(=O)N(C)C1CCN(c2ccn3ncnc(Nc4ccc(Oc5ccn6ncnc6c5)c(C)c4)c23)C1` (stereo not drawn) [Example 72, N-(1-(4-((4-([1,2,4]triazolo[1,5-a]pyridin-7-yloxy)-3-methylphenyl)amino)pyrrolo[2,1-f][1,2,4]triazin-5-yl)pyrrolidin-3-yl)-N-methylacrylamide], for which the GI50 in experiment [1] was 1500 to 5000 nM; in experiment [2] it was less than 200 nM; in experiment [3], less than 200 nM.

As for `Cc1cc(Nc2ncnn3ccc(N4CCC(N(C)C(=O)/C=C/CN(C)C)CC4)c23)ccc1Oc1ccn2ncnc2c1` [Example 73, (E)-N-(1-(4-((4-([1,2,4]triazolo[1,5-a]pyridin-7-yloxy)-3-methylphenyl)amino)pyrrolo[2,1-f][1,2,4]triazin-5-yl)piperidin-4-yl)-4-(dimethylamino)-N-methylbut-2-enamide], the values for the GI50 in experiment [1], in experiment [2] and in experiment [3] were 1500 to 5000 nM, 500 to 1500 nM and less than 200 nM, respectively.

Take `C=CC(=O)N(C)C1CCN(c2ccn3ncnc(Nc4ccc(Oc5ccn6ncnc6c5)c(C)c4)c23)CC1` [Example 74, N-(1-(4-((4-([1,2,4]triazolo[1,5-a]pyridin-7-yloxy)-3-methylphenyl)amino)pyrrolo[2,1-f][1,2,4]triazin-5-yl)piperidin-4-yl)-N-methylacrylamide]: the GI50 in experiment [1] is 1500 to 5000 nM; in experiment [2] it was 500 to 1500 nM; in experiment [3] it was less than 200 nM.

On to `C=CC(=O)N1CCN(c2ccn3ncnc(Nc4ccc(Oc5ccn6ncnc6c5)c(C)c4)c23)CC12CC2` [Example 75, 1-(7-(4-((4-([1,2,4]triazolo[1,5-a]pyridin-7-yloxy)-3-methylphenyl)amino)pyrrolo[2,1-f][1,2,4]triazin-5-yl)-4,7-diazaspiro[2.5]octan-4-yl)prop-2-en-1-one], for which the GI50 in experiment [1] was 500 to 1500 nM; in experiment [2], less than 200 nM; in experiment [3], less than 200 nM.

Take `C=CC(=O)NC1CCCN(c2ccn3ncnc(Nc4ccc(Oc5ccn6ncnc6c5)c(C)c4)c23)C1` (stereo not drawn) [Example 76, N-(1-(4-((4-([1,2,4]triazolo[1,5-a]pyridin-7-yloxy)-3-methylphenyl)amino)pyrrolo[2,1-f][1,2,4]triazin-5-yl)piperidin-3-yl)acrylamide]: the values for the GI50 in experiment [1], in experiment [2] and in experiment [3] were 1500 to 5000 nM, 500 to 1500 nM and less than 200 nM, respectively.

For `C=CC(=O)N1CC(N(C)c2ccn3ncnc(Nc4ccc(Oc5ccn6ncnc6c5)c(C)c4)c23)C1` [Example 77, 1-(3-((4-((4-([1,2,4]triazolo[1,5-a]pyridin-7-yloxy)-3-methylphenyl)amino)pyrrolo[2,1-f][1,2,4]triazin-5-yl)(methyl)amino)azetidin-1-yl)prop-2-en-1-one], the GI50 was 1500 to 5000 nM in experiment [1], 1500 to 5000 nM in experiment [2] and 200 to 500 nM in experiment [3].

Turning to `C=CC(=O)NC1CCN(c2ccn3ncnc(Nc4ccc(Oc5ccn6ncnc6c5)c(C)c4)c23)CC1` [Example 78, N-(1-(4-((4-([1,2,4]triazolo[1,5-a]pyridin-7-yloxy)-3-methylphenyl)amino)pyrrolo[2,1-f][1,2,4]triazin-5-yl)piperidin-4-yl)acrylamide], the figures for the GI50 in experiment [1], in experiment [2] and in experiment [3] were 1500 to 5000 nM, 200 to 500 nM and less than 200 nM, respectively.

With `C=CC(=O)NC1CCN(c2ccn3ncnc(Nc4ccc(Oc5ccn6ncnc6c5)c(C)c4)c23)C1` (stereo not drawn) [Example 79, N-(1-(4-((4-([1,2,4]triazolo[1,5-a]pyridin-7-yloxy)-3-methylphenyl)amino)pyrrolo[2,1-f][1,2,4]triazin-5-yl)pyrrolidin-3-yl)acrylamide], the GI50 is 1500 to 5000 nM in experiment [1], 200 to 500 nM in experiment [2] and less than 200 nM in experiment [3].

For the compound `Cc1cc(Nc2ncnn3ccc(N4CCCN(C(=O)/C=C/CN5CCOCC5)CC4)c23)ccc1Oc1ccn2ncnc2c1` [Example 80, (E)-1-(4-(4-((4-([1,2,4]triazolo[1,5-a]pyridin-7-yloxy)-3-methylphenyl)amino)pyrrolo[2,1-f][1,2,4]triazin-5-yl)-1,4-diazepan-1-yl)-4-morpholinobut-2-en-1-one], the GI50 in experiment [1] was 1500 to 5000 nM; in experiment [2] it was 1500 to 5000 nM; in experiment [3], less than 200 nM.

As to `Cc1cc(Nc2ncnn3ccc(N4CC(NC(=O)/C=C/CN5CCOCC5)C4)c23)ccc1Oc1ccn2ncnc2c1` [Example 81, (E)-N-(1-(4-((4-([1,2,4]triazolo[1,5-a]pyridin-7-yloxy)-3-methylphenyl)amino)pyrrolo[2,1-f][1,2,4]triazin-5-yl)azetidin-3-yl)-4-morpholinobut-2-enamide], the GI50 lay in the range of 1500 to 5000 nM in experiment [1], 1500 to 5000 nM in experiment [2] and 200 to 500 nM in experiment [3].

Take `Cc1cc(Nc2ncnn3ccc(C4CN(C(=O)/C=C/CN5CCC(F)(F)C5)C4)c23)ccc1Oc1ccn2ncnc2c1` [Example 84, (E)-1-(3-(4-((4-([1,2,4]triazolo[1,5-a]pyridin-7-yloxy)-3-methylphenyl)amino)pyrrolo[2,1-f][1,2,4]triazin-5-yl)azetidin-1-yl)-4-(3,3-difluoropyrrolidin-1-yl)but-2-en-1-one]: the values for the GI50 in experiment [1], in experiment [2] and in experiment [3] were 1500 to 5000 nM, 200 to 500 nM and less than 200 nM, respectively.

`Cc1cc(Nc2ncnn3ccc(C4CN(C(=O)/C=C/CN5CCC(F)(F)CC5)C4)c23)ccc1Oc1ccn2ncnc2c1` [Example 85, (E)-1-(3-(4-((4-([1,2,4]triazolo[1,5-a]pyridin-7-yloxy)-3-methylphenyl)amino)pyrrolo[2,1-f][1,2,4]triazin-5-yl)azetidin-1-yl)-4-(4,4-difluoropiperidin-1-yl)but-2-en-1-one]: the GI50 in experiment [1] is 1500 to 5000 nM; in experiment [2], less than 200 nM; in experiment [3] it was less than 200 nM.

In the case of `Cc1cc(Nc2ncnn3ccc(C4CN(C(=O)/C(C#N)=C/C(C)(C)C)C4)c23)ccc1Oc1ccn2ncnc2c1` [Example 89, (E)-2-(3-(4-((4-([1,2,4]triazolo[1,5-a]pyridin-7-yloxy)-3-methylphenyl)amino)pyrolo[2,1-f][1,2,4]triazin-5-yl)azetidine-1-carbonyl)-4,4-dimethylpent-2-enenitrile], the GI50 in experiment [1], in experiment [2] and in experiment [3] was 1500 to 5000 nM each time.

As for `Cc1cc(Nc2ncnn3ccc(C4CN(C(=O)/C(F)=C/C5CCCN5C)C4)c23)ccc1Oc1ccn2ncnc2c1` (stereo not drawn) [Example 92, (Z)-1-(3-(4-((4-([1,2,4]triazolo[1,5-a]pyridin-7-yloxy)-3-methylphenyl)amino)pyrrolo[2,1-f][1,2,4]triazin-5-yl)azetidin-1-yl)-2-fluoro-3-(1-methylpyrrolidin-2-yl)prop-2-en-1-one], the GI50 in experiment [1] was 1500 to 5000 nM; in experiment [2] it was less than 200 nM; in experiment [3] it was less than 200 nM.

`COC1CN(C/C=C/C(=O)N2CCC(c3ccn4ncnc(Nc5ccc(Oc6ccn7ncnc7c6)c(C)c5)c34)CC2)C1` [Example 117, (E)-1-(4-(4-((4-([1,2,4]triazolo[1,5-a]217midazol-7-yloxy)-3-methylphenyl)amino)pyrrolo[2,1-f][1,2,4]triazin-5-yl)piperidin-1-yl)-4-(3-methoxyazetidin-1-yl)but-2-en-1-one]: the figures for the GI50 in experiment [1], in experiment [2] and in experiment [3] were 1500 to 5000 nM, less than 200 nM and less than 200 nM, respectively.

Take `COC1CCN(C/C=C/C(=O)N2CCC(c3ccn4ncnc(Nc5ccc(Oc6ccn7ncnc7c6)c(C)c5)c34)CC2)C1` (stereo not drawn) [Example 118, E-1-(4-(4-((4-([1,2,4]triazolo[1,5-a]217midazol-7-yloxy)-3-methylphenyl)amino)pyrrolo[2,1-f][1,2,4]triazin-5-yl)piperidin-1-yl)-4-(3-methoxypyrrolidin-1-yl)but-2-en-1-one]: the GI50 in experiment [1] was 1500 to 5000 nM; in experiment [2], less than 200 nM; in experiment [3], less than 200 nM.

Consider `Cc1cc(Nc2ncnn3ccc(C4CCN(C(=O)/C=C/CN5CC6COCC6C5)CC4)c23)ccc1Oc1ccn2ncnc2c1` (stereo not drawn) [Example 119, E-1-(4-(4-((4-([1,2,4]triazolo[1,5-a]218midazol-7-yloxy)-3-methylphenyl)amino)pyrrolo[2,1-f][1,2,4]triazin-5-yl)piperidin-1-yl)-4-(tetrahydro-1H-furo[3,4-c]pyrrol-5(3H)-yl)but-2-en-1-one], for which the GI50 is 1500 to 5000 nM in experiment [1], less than 200 nM in experiment [2] and less than 200 nM in experiment [3].

As to `Cc1cc(Nc2ncnn3ccc(C4CCN(C(=O)/C=C/CN5CCC6(COC6)C5)CC4)c23)ccc1Oc1ccn2ncnc2c1` [Example 120, E-1-(4-(4-((4-([1,2,4]triazolo[1,5-a]218midazol-7-yloxy)-3-methylphenyl)amino)pyrrolo[2,1-f][1,2,4]triazin-5-yl)piperidin-1-yl)-4-(2-oxa-6-azaspiro[3.4]octan-6-yl)but-2-en-1-one], the GI50 in experiment [1] is 1500 to 5000 nM; in experiment [2], less than 200 nM; in experiment [3], less than 200 nM.
